Laboratory results as given in patent US20090227533A1, “miR-34 Regulated Genes and Pathways as Targets for Therapeutic Intervention” (priority 2007, published 2009).

Legend:
[1] = system: H226 cells; test: Alamar Blue proliferation assay, lung cancer cells (electroporation); assay type: cell-based, human; conditions: normalized to NC (100%)
Source text: (§1) The inventors assessed the therapeutic effect of hsa-miR-34a for lung cancer by using eight individual lung cancer cell lines. To measure cellular proliferation of lung cancer cells, the following non-small cell lung cancer (NSCLC) cells were used: cells derived from lung adenocarcinoma (A549, H522, Calu-3, HCC2935), cells derived from lung squamous cell carcinoma (H226), cell derived from lung adenosquamous cell carcinoma (H596), cells derived from lung bronchioalveolar carcinoma (H1650), and cells derived from lung large cell carcinoma (H460). Synthetic hsa-miR-34a (Pre-miR™-hsa-miR-34a, Ambion cat. no. AM17100) or negative control (NC) miRNA (Pre-miR™ microRNA Precursor Molecule-Negative Control #2; Ambion cat. no. AM17111) was delivered via lipid-based transfection into A549, H522, H596, Calu-3, HCC2935, H1650, H460 cells and via electroporation into H226 cells.
Lipid-based reverse transfections were carried out in triplicate according to a published protocol (Ovcharenko et al., 2005) and the following parameters: cells (5,000-12,000 per 96 well), 0.1-0.2 μl Lipofectamine™ 2000 (cat. no. 11668-019, Invitrogen Corp., Carlsbad, Calif., USA) in 20 μl OptiMEM (Invitrogen), 30 nM final concentration of miRNA in 100 μl. Electroporation of H226 cells was carried out using the BioRad Gene Pulser Xcell™ instrument (BioRad Laboratories Inc., Hercules, Calif., USA) with the following settings: 5×10^6 cells with 5 μg miRNA in 200 μl OptiMEM (1.6 μM miRNA), square wave pulse at 250 V for 5 ms. Electroporated H226 cells were seeded at 7,000 cells per 96-well in a total volume of 100 μl. All cells except for Calu-3 cells were harvested 72 hours post transfection or electroporation for assessment of cellular proliferation. Calu-3 cells were harvested 10 days post transfection. Proliferation assays were performed using Alamar Blue (Invitrogen) following the manufacturer's instructions. As a control for inhibition of cellular proliferation, siRNA against the motor protein kinesin 11, also known as Eg5, was used. […]

[2] = system: SCLC and NSCLC cells; conditions: various lung cancer cells (Tsai et al., 1993; Ohsaki et al., 1992); cited from earlier work
[3] = system: H460 cells; test: Alamar Blue proliferation assay, lung cancer cells; assay type: cell-based, human; conditions: normalized to NC (100%)
Source text: as §1
(§2) Lipid-based reverse transfections were carried out in triplicate according to a published protocol (Ovcharenko et al., 2005) and the following parameters: cells (5,000-12,000 per 96 well), 0.1-0.2 μl Lipofectamine™ 2000 (cat. no. 11668-019, Invitrogen Corp., Carlsbad, Calif., USA) in 20 μl OptiMEM (Invitrogen), 30 nM final concentration of miRNA in 100 μl. Electroporation of H226 cells was carried out using the BioRad Gene Pulser Xcell™ instrument (BioRad Laboratories Inc., Hercules, Calif., USA) with the following settings: 5×10^6 cells with 5 μg miRNA in 200 μl OptiMEM (1.6 μM miRNA), square wave pulse at 250 V for 5 ms. Electroporated H226 cells were seeded at 7,000 cells per 96-well in a total volume of 100 μl. All cells except for Calu-3 cells were harvested 72 hours post transfection or electroporation for assessment of cellular proliferation. Calu-3 cells were harvested 10 days post transfection. Proliferation assays were performed using Alamar Blue (Invitrogen) following the manufacturer's instructions. As a control for inhibition of cellular proliferation, siRNA against the motor protein kinesin 11, also known as Eg5, was used. Eg5 is essential for cellular survival of most eukaryotic cells and a lack thereof leads to reduced cell proliferation and cell death (Weil et al., 2002). siEg5 was used in lipid-based transfection following the same experimental parameters that apply to miRNA. The inventors also used a DNA topoisomerase II inhibitor, etoposide, at a final concentration of 10 μM and 50 μM as an internal standard for the potency of miRNAs. Etoposide is an FDA-approved DNA topoisomerase II inhibitor in the treatment of lung cancer. […] Percent (%) proliferation values from the Alamar Blue assay were normalized to values from cells treated with negative control miRNA. Percent proliferation of hsa-miR-34a treated cells relative to cells treated with negative control miRNA (100%) is shown in Table 7 and in FIG. 1.

[4] = system: H522 cells; test: Alamar Blue proliferation assay, lung cancer cells; assay type: cell-based, human; conditions: normalized to NC (100%)
Source text: as §1, §2

[5] = system: H596 cells; test: Alamar Blue proliferation assay, lung cancer cells; assay type: cell-based, human; conditions: normalized to NC (100%)
Source text: as §1, §2

[6] = system: A549 cells; test: Alamar Blue proliferation assay, lung cancer cells; assay type: cell-based, human; conditions: normalized to NC (100%)
Source text: as §1, §2

[7] = system: Calu-3 cells; test: Alamar Blue proliferation assay, lung cancer cells; assay type: cell-based, human; conditions: Calu-3, normalized to NC (100%)
Source text: as §1, §2

[8] = system: H1650 cells; test: Alamar Blue proliferation assay, lung cancer cells; assay type: cell-based, human; conditions: normalized to NC (100%)
Source text: as §1, §2

[9] = system: H460 lung cancer cells; test: Alamar Blue proliferation assay with pair-wise miRNA combinations; assay type: cell-based, human; conditions: normalized to 600 pM negative control miRNA
Source text: miRNAs function in multiple pathways controlling multiple cellular processes. Cancer cells frequently show aberrations in several different pathways, which determine their oncogenic properties. […] The inventors assessed the efficacy of pair-wise miRNA combinations, administering hsa-miR-34a concurrently with either hsa-miR-124a, hsa-miR-126, hsa-miR-147, hsa-let-7b, hsa-let-7c or hsa-let-7g (Pre-miR™ miRNA, Ambion cat. no. AM17100). H460 lung cancer cells were transiently reverse-transfected in triplicate with each miRNA at a final concentration of 300 pM, resulting in 600 pM of total oligonucleotide. For negative controls, 600 pM of Pre-miR™ microRNA Precursor Molecule-Negative Control #2 (Ambion cat. no. AM17111) were used. To correlate the effect of various combinations with the effect of the sole miRNA, each miRNA at 300 pM was also combined with 300 pM negative control miRNA. Reverse transfection was carried out using the following parameters: 7,000 cells per 96 well, 0.15 μl Lipofectamine™ 2000 (Invitrogen) in 20 μl OptiMEM (Invitrogen), 100 μl total transfection volume. […] Cells were harvested 72 hours after transfection and subjected to Alamar Blue assays (Invitrogen). Percent proliferation values from the Alamar Blue assays were normalized to those obtained from cells treated with 600 pM negative control miRNA. Data are expressed as % proliferation relative to negative control miRNA-treated cells (Table 8, FIG. 3).
Additive activity of pair-wise combinations (e.g., hsa-miR-34a plus hsa-miR-147) is defined as an activity that is greater than the sole activity of each miRNA (e.g., the activity of hsa-miR-34a plus hsa-miR-147 is greater than that observed for hsa-miR-34a plus NC and the activity of hsa-miR-34a plus hsa-miR-147 is greater than that observed for hsa-miR-147 plus NC). Synergistic activity of pair-wise combinations is defined as an activity that is greater than the sum of the sole activity of each miRNA (e.g., the activity of hsa-miR-34a plus hsa-let-7g is greater than that observed for the sum of the activity of hsa-miR-34a plus NC and the activity of hsa-let-7g plus NC). […] The combinatorial use of miRNAs represents a potentially useful therapy for cancer and other diseases.

COc1cc([C@@H]2c3cc4c(cc3[C@@H](O[C@@H]3O[C@@H]5CO[C@@H](C)O[C@H]5[C@H](O)[C@H]3O)[C@H]3COC(=O)[C@H]23)OCO4)cc(OC)c1O [Etoposide, etoposide]
% proliferation ([1]; etoposide 10 μM): 28.17%
% proliferation ([1]; etoposide 50 μM): 9.33%
IC50 [2]: 1 to 25 µM
% proliferation ([3]; etoposide 10 μM): 32.13%
% proliferation ([3]; etoposide 50 μM): 27.82%
% proliferation ([4]; etoposide 10 μM): 82.13%
% proliferation ([4]; etoposide 50 μM): 61.08%
% proliferation ([5]; etoposide 10 μM): 88.75%
% proliferation ([5]; etoposide 50 μM): 73.39%
% proliferation ([6]; etoposide 10 μM): 49.13%
% proliferation ([6]; etoposide 50 μM): 42.18%
% proliferation ([7]; etoposide 10 μM): 20.81%
% proliferation ([7]; etoposide 50 μM): 13.53%
% proliferation ([8]; etoposide 10 μM): 90.98%
% proliferation ([8]; etoposide 50 μM): 60.31%
% proliferation ([9]; etoposide 10 μM): 20.19%
% proliferation ([9]; etoposide 50 μM): 14.94%
